pIC50: −log10 of the molar value.
Tests used:
mTOR kinase = molecular target: T1, mTOR kinase (Homo sapiens, UniProt P42345); assay: mTOR kinase TR-FRET assay; format: biochemical; details: read-out: mTO R
T1 construct: purchased Millipore, USA
Method: Compound inhibition for mTOR kinase was determined in a homogeneous TR-FRET assay using the Lance® ULight-p70 S6K (Thr 389) peptide (obtained from Perkin-Elmer). The ULight™-labeled synthetic peptide contains the amino acid residues surrounding Thr389 of human p70 S6K. The ULight-p70 S6K peptide is phosphorylated at Thr389 by mTOR. Phosphorylation motif: LGFTYVAP as substrate.
The compound dilution was carried out in 100% DMSO followed by a buffer dilution. The reaction buffer was HEPES (50 mM pH 7.5), EGTA (1 mM), MnCl2 (3 mM). Test compounds at various concentrations were pre-incubated with mTOR (Millipore, USA; 5 ng) for 60 min, and then the Lance® ULight-p70 S6K (Thr 389) peptide (50 nM) was added along with ATP (20 μM). After incubating the reaction mixture for 60 min at room temperature, the kinase reaction was terminated by the addition of EDTA (10 mM) followed by the addition of detection mix, i.e., 1 nM Eu-labeled anti-phospho-substrate antibody (Perkin Elmer, USA). The fluorescence emission at […] was measured upon excitation at 340 nm. IC50 values were subsequently determined using a sigmoidal dose-response curve (variable slope) in GraphPad Prism® 5 software.
Compounds of formula (I) caused inhibition of mTOR kinase activity as determined by this assay.

[1] = molecular target: T2, PI3Kα (wild-type), P110/P85α (Homo sapiens, UniProt P42336); assay: PI3 Kinase TR-FRET assay, PI3Kα (wild-type); format: biochemical
T2 construct: made in house; host or cells: SF9 insect cells
T2 sequence (P42336 whole entry): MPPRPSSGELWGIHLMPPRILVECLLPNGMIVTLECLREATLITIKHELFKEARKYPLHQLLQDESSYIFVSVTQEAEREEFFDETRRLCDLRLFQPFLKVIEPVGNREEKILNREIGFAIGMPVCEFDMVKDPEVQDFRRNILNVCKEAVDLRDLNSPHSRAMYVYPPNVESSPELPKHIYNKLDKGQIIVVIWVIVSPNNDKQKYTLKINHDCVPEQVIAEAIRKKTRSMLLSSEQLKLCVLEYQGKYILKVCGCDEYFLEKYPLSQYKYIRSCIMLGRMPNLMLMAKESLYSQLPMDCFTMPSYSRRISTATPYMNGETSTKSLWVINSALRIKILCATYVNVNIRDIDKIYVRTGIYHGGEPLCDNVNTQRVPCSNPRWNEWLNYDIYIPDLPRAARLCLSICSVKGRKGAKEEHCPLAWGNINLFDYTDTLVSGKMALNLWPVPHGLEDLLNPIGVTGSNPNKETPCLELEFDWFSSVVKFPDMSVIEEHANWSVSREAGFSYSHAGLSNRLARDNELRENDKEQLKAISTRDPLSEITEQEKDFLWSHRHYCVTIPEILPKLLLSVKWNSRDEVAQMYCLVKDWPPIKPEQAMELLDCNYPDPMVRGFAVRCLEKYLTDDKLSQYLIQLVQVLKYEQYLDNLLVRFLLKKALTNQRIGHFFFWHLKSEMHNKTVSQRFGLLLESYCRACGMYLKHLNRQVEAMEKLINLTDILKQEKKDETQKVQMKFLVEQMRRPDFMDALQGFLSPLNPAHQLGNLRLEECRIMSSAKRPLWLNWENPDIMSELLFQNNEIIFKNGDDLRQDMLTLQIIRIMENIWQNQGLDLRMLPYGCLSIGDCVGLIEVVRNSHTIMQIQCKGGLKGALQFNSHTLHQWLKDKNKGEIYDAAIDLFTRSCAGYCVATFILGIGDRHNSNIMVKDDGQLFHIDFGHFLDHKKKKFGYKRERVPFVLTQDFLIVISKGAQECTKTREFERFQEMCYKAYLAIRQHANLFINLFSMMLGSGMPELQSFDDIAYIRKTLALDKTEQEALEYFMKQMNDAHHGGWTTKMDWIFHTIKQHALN
T2 sequence (P27986 whole entry partner): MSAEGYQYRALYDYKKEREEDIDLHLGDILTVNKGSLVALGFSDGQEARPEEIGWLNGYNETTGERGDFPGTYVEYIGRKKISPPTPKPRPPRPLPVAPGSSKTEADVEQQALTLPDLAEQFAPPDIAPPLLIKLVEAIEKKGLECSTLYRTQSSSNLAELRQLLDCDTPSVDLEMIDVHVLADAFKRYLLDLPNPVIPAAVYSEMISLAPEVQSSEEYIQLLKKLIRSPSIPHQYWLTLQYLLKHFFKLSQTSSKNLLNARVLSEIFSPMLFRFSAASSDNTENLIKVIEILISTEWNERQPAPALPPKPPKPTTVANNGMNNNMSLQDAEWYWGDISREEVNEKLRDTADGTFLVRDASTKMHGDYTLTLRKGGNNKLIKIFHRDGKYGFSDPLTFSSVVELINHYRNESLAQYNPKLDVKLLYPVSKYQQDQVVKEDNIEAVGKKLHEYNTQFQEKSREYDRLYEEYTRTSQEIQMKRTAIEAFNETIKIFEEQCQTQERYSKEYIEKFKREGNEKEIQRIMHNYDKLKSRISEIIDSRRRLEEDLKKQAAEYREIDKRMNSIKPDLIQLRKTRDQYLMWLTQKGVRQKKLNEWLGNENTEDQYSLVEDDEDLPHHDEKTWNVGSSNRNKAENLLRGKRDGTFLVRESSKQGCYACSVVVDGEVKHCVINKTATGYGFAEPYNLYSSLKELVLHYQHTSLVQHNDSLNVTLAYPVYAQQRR
Method: The ability of compounds of the invention to inhibit PI3K activity was determined in a homogeneous TR-FRET assay using a PI3K assay kit (Millipore, USA; cat #33-016) according to manufacturer's instructions. PI3-Kinases (isoforms α, β, γ and δ) catalyze the phosphorylation of phosphatidylinositol, PIP2 to PIP3 in the presence of ATP and Mg^2+. The PIP3 product is detected by displacement of biotin-PIP3 from an energy transfer complex consisting of Europium labeled anti-GST monoclonal antibody, a GST-tagged PH domain, biotinylated PIP3 and Streptavidin-APC. Excitation of Europium in the complex results in an energy transfer to the APC and a fluorescence emission at 665 nm. The PIP3 product displaces biotin-PIP3 from the complex resulting in a loss of energy transfer and thus a decrease in signal.
To test for the ability of compounds to inhibit the activity of PI3Kα (wild-type), exemplary compounds of formula (I) were dissolved in DMSO and directly distributed into 384-well plates at a volume of 0.5 μL. 14.5 μL of P110/P85α/PIP2 mixture in buffer (obtained from the Millipore kit) containing MgCl2 (40 mM) and DTT (5 mM) was added to compound wells and incubated for 60 min at room temperature. P110/P85α was expressed in SF9 insect cells and purified nickel column extraction. Five ng of wild-type P110/P85α was used in the assay. The kinase reaction was started by the addition of ATP. The assay concentrations of both PIP2 and ATP were 10 μM. The reaction mixture was incubated for 30 min at room temperature and was terminated by the addition of stop mix and detection mix. Fluorescence was measured at 615 and 665 nm upon excitation at 340 nm in a Victor™ V5 fluorometer (Perkin Elmer, USA). The fluorescence emission ratio at 665 to 615 nm, proportional to the kinase activity, was plotted against the compound concentration to generate dose-response curves and IC50 values were determined using GraphPad Prism® 5 software.

Row | Structure (SMILES) | pIC50 (mTOR kinase) | pIC50 [1]
1 | Cc1noc(C)c1-c1ccc2c(N3CCOCC3)nc(-c3ccc(NC(=O)Nc4ccc(C(=O)N5CCC(N(C)C)C5)cc4)c(F)c3)nc2c1 (stereo in doubt) [Example 221, (S)-1-(4-(3-(dimethylamino)pyrrolidine-1-carbonyl)phenyl)-3-(4-(7-(3,5-dimethylisoxazol-4-yl)-4-morpholino-quinazolin-2-yl)-2-fluorophenyl)urea] | 6.70 to 7.30 | 6.70 to 7.30
2 | Cc1ccc(-c2ccc3c(N4CCOCC4)nc(-c4ccc(NC(=O)Nc5ccc(C(=O)N(C)C)cc5)c(F)c4)nc3c2)o1 [Example 8, 4-(3-{2-Fluoro-4-[7-(5-methyl-furan-2-yl)-4-morpholin-4-yl-quinazolin-2-yl]-phenyl}ureido)dimethyl-benzamide] | 6.70 to 7.30 | 5.00 to 6.70
3 | Cc1ccc(-c2ccc3c(N4CCOCC4)nc(-c4ccc(NC(=O)Nc5ccc(N6CCCC6=O)cc5)cc4)nc3c2)o1 [Example 18, 1-(4-(7-(5-methylfuran-2-yl)-4-morpholino-quinazolin-2-yl)phenyl)-3-(4-(2-oxopyrrolidin-1-yl)phenyl)urea] | > 7.30 | 5.00 to 6.70
4 | CN(C)C(=O)c1ccc(NC(=O)Nc2ccc(-c3nc(N4CCOCC4)c4ccc(-c5cccc(F)c5)cc4n3)cc2)cc1 [Example 47, 4-(3-{4-[7-(3-fluoro-phenyl)-4-morpholin-4-yl-quinazolin-2-yl]-phenyl}-ureido)-N,N-dimethyl-benzamide] | 5.00 to 6.70 | 6.70 to 7.30
5 | COc1cccc(-c2ccc3c(N4CCOCC4)nc(-c4ccc(NC(=O)Nc5ccc(C(=O)N(C)C)cc5)cc4)nc3c2)c1 [Example 48, 4-(3-{4-[7-(3-methoxy-phenyl)-4-morpholin-4-yl-quinazolin-2-yl]-phenyl}-ureido)-N,N-dimethyl-benzamide] | 6.70 to 7.30 | 6.70 to 7.30
6 | CN(C)C(=O)c1ccc(NC(=O)Nc2ccc(-c3nc(N4CCOCC4)c4ccc(-c5cccc(N(C)C)c5)cc4n3)cc2)cc1 [Example 50, 4-(3-{4-[7-(3-dimethylamino-phenyl)-4-morpholin-4-yl-quinazolin-2-yl]-phenyl}-ureido)-N,N-dimethyl-benzamide] | 6.70 to 7.30 | > 7.30
7 | CNC(=O)c1ccc(NC(=O)Nc2ccc(-c3nc(N4CCOCC4)c4ccc(-c5ccc(C)o5)cc4n3)cc2)cc1 [Example 56, N-methyl-4-(3-{4-[7-(5-methyl-furan-2-yl)-4-morpholin-4-yl-quinazolin-2-yl]-phenyl}-ureido)-benzamide] | > 7.30 | 6.70 to 7.30
8 | Cc1ccc(-c2ccc3c(N4CCOCC4)nc(-c4ccc(NC(=O)Nc5ccc(C(=O)N(C)C)cc5)nc4)nc3c2)o1 [Example 57, N,N-dimethyl-4-(3-{5-[7-(5-methyl-furan-2-yl)-4-morpholin-4-yl-quinazolin-2-yl]-pyridin-2-yl}-ureido)-benzamide] | 5.00 to 6.70 | > 7.30
9 | Cc1ccc(-c2ccc3c(N4CCOCC4)nc(-c4ccc(NC(=O)Nc5ccc(C(=O)N(C)C)cc5)cc4)nc3c2)s1 [Example 61, N,N-dimethyl-4-(3-{4-[7-(5-methyl-thiophen-2-yl)-4-morpholin-4-yl-quinazolin-2-yl]-phenyl}-ureido)-benzamide] | 5.00 to 6.70 | 6.70 to 7.30
10 | CN(C)C(=O)c1ccc(NC(=O)Nc2ccc(-c3nc(N4CCOCC4)c4ccc(-c5cc6ccccc6o5)cc4n3)cc2)cc1 [Example 64, 4-{3-[4-(7-benzofuran-2-yl-4-morpholin-4-yl-quinazolin-2-yl)-phenyl]-ureido}-N,N-dimethyl-benzamide] | 5.00 to 6.70 | 5.00 to 6.70
11 | Cc1ccc(-c2cccc3c(N4CCOCC4)nc(-c4ccc(NC(=O)Nc5ccc(C(=O)N(C)C)cc5)cc4)nc23)o1 [Example 71, N,N-dimethyl-4-(3-{4-[8-(5-methyl-furan-2-yl)-4-morpholin-4-yl-quinazolin-2-yl]-phenyl}-ureido)-benzamide] | > 7.30 | 6.70 to 7.30
12 | CN(C)C(=O)c1ccc(NC(=O)Nc2ccc(-c3nc(N4CCOCC4)c4ccc(-c5cnc(N)nc5)cc4n3)cc2)cc1 [Example 76, 4-(3-{4-[7-(2-amino-pyrimidin-5-yl)-4-morpholin-4-yl-quinazolin-2-yl]-phenyl}-ureido)-N,N-dimethyl-benzamide] | > 7.30 | > 7.30
13 | CN(C)C(=O)c1ccc(NC(=O)Nc2ccc(-c3nc(N4CCOCC4)c4ncc(-c5cccnc5F)cc4n3)cc2)cc1 [Example 78, 4-(3-{4-[7-(2-fluoro-pyridin-3-yl)-4-morpholin-4-yl-pyrido[3,2-d]pyrimidin-2-yl]-phenyl}-ureido)-N,N-dimethyl-benzamide] | > 7.30 | > 7.30
14 | O=C(Nc1ccc(-c2nc(N3CCOCC3)c3ccc(-c4cccnc4F)cc3n2)cc1)Nc1ccc(N2CCCC2=O)cc1 [Example 292, 1-(4-(7-(2-fluoropyridin-3-yl)-4-morpholinoquinazolin-2-yl)phenyl)-3-(4-(2-oxopyrrolidin-1-yl)phenyl)urea] | > 7.30 | 

The next lines start with the values.

Row | pIC50 (mTOR kinase) | pIC50 [1] | Structure (SMILES)
15 | > 7.30 | 6.70 to 7.30 | CN(C)CCNC(=O)c1ccc2c(N3CCOCC3)nc(-c3ccc(NC(=O)Nc4ccc(C(=O)N(C)C)cc4)cc3)nc2c1 [Example 7, 2-[4-{3-(4-Dimethycarbamoyl-phenyl)-Ureido]-phenyl}-4-morpholin-4-yl-quinazoline-7-carboxylic acid (2-dimethylamino-ethyl)-amide]
16 | > 7.30 | > 7.30 | CN(C)C(=O)c1ccc(NC(=O)Nc2ccc(-c3nc(N4CCOCC4)c4ccc(-c5ccc(C(=O)O)o5)cc4n3)cc2)cc1 [Example 10, 5-(2-(4-(3-(4-(dimethylcarbamoyl)phenyl)ureido)phenyl)-4-morpholino-quinazolin-7-yl)furan-2-carboxylic acid]
17 | > 7.30 | > 7.30 | CN1CCN(C(=O)c2ccc(-c3ccc4c(N5CCOCC5)nc(-c5ccc(NC(=O)Nc6ccc(C(=O)N(C)C)cc6)cc5)nc4c3)o2)CC1 [Example 11, N,N-dimethyl-4-(3-(4-(7-(5-(4-methylpiperazine-1-carbonyl)furan-2-yl)-4-morpholino-quinazolin-2-yl)phenyl)ureido)-benzamide]
18 | > 7.30 | > 7.30 | CN(C)C(=O)c1ccc(NC(=O)Nc2ccc(-c3nc(N4CCOCC4)c4ccc(-c5ccc(C#N)o5)cc4n3)c(F)c2)cc1 [Example 12, 4-(3-(4-(7-(5-cyanofuran-2-yl)-4-morpholino-quinazolin-2-yl)-3-fluorophenyl)ureido)-N,N-dimethyl-benzamide]
19 | > 7.30 | > 7.30 | CC(=O)c1ccc(-c2ccc3c(N4CCOCC4)nc(-c4ccc(NC(=O)Nc5ccc(C(=O)N(C)C)c(F)c5)cc4)nc3c2)o1 [Example 13, 4-(3-(4-(7-(5-acetylfuran-2-yl)-4-morpholino-quinazolin-2-yl)phenyl)ureido)-2-fluoro-N,N-dimethyl-benzamide]
20 | > 7.30 | > 7.30 | CN(C)C(=O)c1ccc(NC(=O)Nc2ccc(-c3nc(N4CCOCC4)c4ncc(-c5cnn(C)c5)cc4n3)c(F)c2F)cc1 [Example 14, 4-(3-(2,3-difluoro-4-(7-(1-methyl-1H-pyrazol-4-yl)-4-morpholino-pyrido[3,2-d]pyrimidin-2-yl)phenyl)ureido)-N,N-dimethyl-benzamide]
21 | > 7.30 | > 7.30 | CC(O)c1ccc(-c2cnc3c(N4CCOCC4)nc(-c4ccc(NC(=O)Nc5ccc(C(=O)N(C)C)cc5)c(F)c4)nc3c2)o1 (centres unmarked) [Example 15, 4-(3-(2-fluoro-4-(7-(5-(1-hydroxyethyl)furan-2-yl)-4-morpholino-pyrido[3,2-d]pyrimidin-2-yl)phenyl)ureido)-N,N-dimethyl-benzamide]

From US9115092B2, “Substituted quinazoline and pyrido-pyrimidine derivatives” (Asana Biosciences, LLC, priority 2010, dated 2015)
